Assay results taken from patent US20240158447A1, “PEPTIDES FOR USE IN THE TREATMENT OR PREVENTION OF MYOCARDIAL DAMAGE” (THE UNIVERSITY OF WESTERN AUSTRALIA, priority 2020, published 2024).
Entries after “also recorded” stand apart in the source; their conditions may differ.

Legend:
Cavβ2 subunit = biological target: T1, Cavβ2 subunit (Homo sapiens, UniProt Q08289); assay: Competitive binding affinity assay, biotinylated AID affinity beads vs Cavβ2 subunit (Example 9); conditions: dose-response 0, 10 nM to 100 μM peptide; FIG. 9
T1 construct: incubated with 100 μg of Cavβ2 subunit from cardiac homogenate and cytoplasmic protein preparation; from tissue; host or cells: cardiac homogenate and cytoplasmic protein preparation
T1 sequence (Q08289 whole entry): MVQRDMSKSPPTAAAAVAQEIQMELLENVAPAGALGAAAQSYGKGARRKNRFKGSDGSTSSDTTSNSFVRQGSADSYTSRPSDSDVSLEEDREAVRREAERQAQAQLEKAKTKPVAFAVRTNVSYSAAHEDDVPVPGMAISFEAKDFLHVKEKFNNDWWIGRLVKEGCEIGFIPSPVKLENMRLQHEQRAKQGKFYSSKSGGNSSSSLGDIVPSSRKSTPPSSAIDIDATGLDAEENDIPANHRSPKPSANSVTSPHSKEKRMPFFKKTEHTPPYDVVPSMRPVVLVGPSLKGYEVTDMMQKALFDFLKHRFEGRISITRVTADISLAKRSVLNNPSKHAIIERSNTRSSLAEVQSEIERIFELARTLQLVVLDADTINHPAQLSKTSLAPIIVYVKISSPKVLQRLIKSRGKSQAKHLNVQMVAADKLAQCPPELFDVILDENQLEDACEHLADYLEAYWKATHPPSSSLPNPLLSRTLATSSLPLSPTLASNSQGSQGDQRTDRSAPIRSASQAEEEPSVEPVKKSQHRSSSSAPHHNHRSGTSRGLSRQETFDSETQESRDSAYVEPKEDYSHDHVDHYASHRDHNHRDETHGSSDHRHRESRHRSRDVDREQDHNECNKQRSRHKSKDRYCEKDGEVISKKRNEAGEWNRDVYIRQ
Description: In this experiment, a binding affinity assay was utilized to examine the binding efficacy of AID peptide variants presented in Table 8, compared to the original AID peptide.
Biotinylation of original AID (no TAT): For each reaction (a dose-response curve consisted of 6 reactions), 0.02 nM […] was incubated in biotinylation solution (0.1M MES buffer containing 1 nM amine-PEG11-biotin and 0.2 nM EDC) for 2 hrs at room temperature with agitation (400 rpm). Affinity beads (Dynabeads M-280 Streptavidin, ThermoFisher Scientific) were then incubated with biotinylated AID peptide for 30 min at room temperature with agitation (400 rpm). Afterwards, biotinylated AID-coated affinity beads were washed, initially in 0.1% BSA in PBS and then three times in PBS for 3 min.
Biochem J. 2000; 348 Pt 3:657-65; Haase H, Striessnig J, Holtzhauer M, Vetter R, Glossmann H. A rapid procedure for the purification of cardiac 1,4-dihydropyridine receptors from porcine heart. Eur J Pharmacol. 1991; 207(1):51-9).
Competitive binding of AID-affinity beads and Cavβ2 subunit: Cavβ2-AID mutant peptide dilutions were then incubated with biotinylated AID-coated affinity beads for 2 hrs at room temperature with gentle agitation (400 rpm). Samples were placed on a magnetic stand to allow affinity beads to migrate to the magnet. Supernatant was removed and treated with 1× sample buffer (62.5 mM Tris-HCl, pH 6.8, 2% SDS, 10% glycerol, 100 mM DTT, 0.002% Bromophenol Blue) for 5 min at 95° C. Resulting protein was analysed by immunoblot.

Guinea pig hearts = assay: Myocardial ischemia-reperfusion injury, Langendorff hearts ex vivo (CK, LDH, GSH:GSSG); conditions: for Creatine Kinase (CK) activity in perfusate: FIG. 6(a); for Lactate Dehydrogenase (LDH) activity in perfusate: FIG. 6(b); for GSH:GSSG ratio in whole heart tissue: FIG. 6(c)
Description: Adult male guinea pigs were anesthetized with pentobarbitone sodium (240 mg/kg) via intraperitoneal injection prior to excision of the heart. Guinea pig hearts were cannulated onto a Langendorff apparatus via the aorta and perfused retrogradely with Ca^2+ containing KHB comprising (in mM): 120 NaCl, 25 NaHCO3, 4.8 KCl, 2.2 MgSO4, 1.2 NaH2PO4, 11 glucose and 1.5 CaCl2 (pH=7.35 with O2/CO2 at 37° C.) at 37° C. for 30 min at a rate of 7 mL/min, followed by 30 min no-flow ischemia, then 30 min reperfusion as previously described.
Perfusates were collected 20 and 25 min pre-ischemia and 20 and 30 min following reperfusion. A single dose of 0.5-10 μM AID(S)-TAT, AID-TAT, peptide 6 or peptide 7 was added to Ca^2+-containing KHB solution just prior to reperfusion. Creatine Kinase (CK) and Lactate Dehydrogenase (LDH) activity was measured in perfusates collected pre- and post-ischemia, and post-ischemia values normalized to pre-ischemia values.
For each sample, 10 μL of perfusate was added to 100 μL CK enzyme reagent (CK NAC-activated diagnostic kit, Randox Laboratories) and the rate of increase in absorbance recorded over 15 min at 30° C. using a spectrophotometer (PowerWave XS, BioTek, 340 nm).
To determine LDH activity, 150 μL of each sample was mixed with 50 μL of LDH reagent (50 mM imidazole buffer, 375 μM NADH, pyruvate and 0.05% BSA, pH=7) and the rate of decrease in absorbance recorded over 15 min at 25° C. using a spectrophotometer (PowerWave XS, BioTek, 340 nm).
GSSG was calculated by subtracting GSH from total glutathione.

[1] = test system: cTnI-G203S mutant myocytes; assay: Flavoprotein oxidation response to BayK(−), cTnI-G203S myocytes (Example 10); type: cell-based, mouse; conditions: 0.5 μM peptide, 10 μM BayK(−), FIG. 10D
Description: In this experiment wt myocytes were pre-exposed to 0.1, 0.5 or 1 μM for 20 min and assessed changes in flavoprotein oxidation and ψm.
Measurement of mitochondrial flavoprotein oxidation: Flavoprotein autofluorescence was used to measure flavoprotein oxidation based on previously described methods (Yaniv Y, Juhaszova M, Lyashkov A E, Spurgeon H A, Sollott S J, Lakatta E G. Ca2+-regulated-cAMP/PKA signaling in cardiac pacemaker cells links ATP supply to demand. J Mol Cell Cardiol. 2011; 51(5):740-8). […] Fluorescent images were acquired at 1 min intervals with 200 ms exposure. Metamorph 6.3 (Version 7.10.3) was used to quantify the signal by manually tracing myocytes. […] Fluorescence values recorded over 5 min before and 5 min after addition of drugs were averaged and alterations in fluorescent ratios reported as the percentage increase from the basal average. FCCP (50 μM) and NaCN (40 mM) was added at the end of each experiment to achieve a respective maximal and minimal fluorescence value indicative of maximal and minimal flavoprotein oxidation.
The ICA-L agonist BayK(−) was used to activate the channel and assess mitochondrial function. […] FIG. 10 presents the mean+/−SEM of flavoprotein fluorescence from cTnI.2 wt and cTnI-G2035 mutant myocytes before and after exposure to 10 μM BayK(−) in the presence of 1 μM AID(S)-TAT, and increasing concentrations of variant peptides as indicated. […]

cTnI-G203S mice = assay: Heart weight to body weight ratio of treated cTnI-G203S mice; type: in vivo, mouse; conditions: 5 μM, 3×/wk/5 wk; compared with cTnI-G203S AID(S)-TAT; FIG. 16
Description: The effect of treatment of the mice with peptides on the development of hypertrophy assessed as changes in heart weight to body weight ratio was also examined. […] FIG. 16 presents the mean±SEM of heart weight to body weight ratio measurements from wt and cTnI-G203S mice treated with 10 μM AID(S)-TAT, 10 μM AID-TAT, 5 μM AIDP7-TAT, 5 μM AIDP14-TAT, 5 μM AIDP15-TAT or 5 μM AIDP16-TAT. n=number of mice as indicated. *P<0.05, **P<0.01 compared with cTnI-G203S AID(S)-TAT as determined by Kruskal-Wallis tests.

[2] = 0.5 μM peptide added just prior to reperfusion
[3] = 1 μM peptide added just prior to reperfusion

AIDP7-TAT: QQQEEDLKGYLDWITQAE with TAT sequence
K0.5 values compared to AID peptide (Cavβ2 subunit): decreased K0.5 values | Creatine Kinase (CK) activity in perfusate (Guinea pig hearts; [2]): reduced compared to the AID(S)-TAT peptide; also recorded: reduced in both P7-TAT (1 μM) and P7-TAT (0.5 μM) compared to the P6-TAT peptide; also recorded: at least as effective as AID-TAT (1 μM) | Lactate Dehydrogenase (LDH) activity in perfusate (Guinea pig hearts; [2]): reduced compared to the AID(S)-TAT peptide; also recorded: reduced LDH at least as well as AID-TAT (1 μM) | GSH:GSSG ratio in whole heart tissue (Guinea pig hearts; 0.5 μM peptide): statistically significant increase in the GSH:GSSG ratio, comparable to the AID-TAT samples at 10 μM | Creatine Kinase (CK) activity in perfusate (Guinea pig hearts; [3]): reduced compared to the AID(S)-TAT peptide; also recorded: reduced in both P7-TAT (1 μM) and P7-TAT (0.5 μM) compared to the P6-TAT peptide | Lactate Dehydrogenase (LDH) activity in perfusate (Guinea pig hearts; [3]): reduced compared to the AID(S)-TAT peptide | GSH:GSSG ratio in whole heart tissue (Guinea pig hearts; 1 μM peptide): statistically significant increase in the GSH:GSSG ratio, comparable to the AID-TAT samples at 10 μM | oxidative stress (CK activity, LDH activity and GSH:GSSG ratio taken together) (Guinea pig hearts; same concentration or lower dosages of P7-TAT versus AID-TAT): more effective than AID-TAT at reducing oxidative stress | BayK(−) induced increase in flavoprotein oxidation [1]: significantly attenuated increases in flavoprotein oxidation resulting from BayK(−) exposure | heart weight to body weight ratio (cTnI-G203S mice): significantly decreased heart weight/body weight
